Biological target: human TLR4 (Homo sapiens, UniProt O00206+Q9Y6Y9)
Assay: Human TLR4 activating effect (HEK-Blue Human TLR4 Cells, SEAP reporter)
Assay type: cell-based
Details: 24 hours, SEAP Protein concentration, read-out: EC50 (ng/ml) (converted)
Description: The human TLR4 activating effect was studied using the compounds described in Examples 1 to 17 and monophosphoryl lipid A as Comparative Example A.
Triethanolamine was dissolved at 0.5% (v/v) in injectable distilled water to prepare an aqueous triethanolamine solution. 1 mg of each test drug was dissolved in 0.98 mL of the aqueous triethanolamine solution, and pH of the solution was then adjusted to 7.2 to 7.4 by the addition of 20 μL of 1 M HCl to prepare a 1 mg/mL solution. A dilution series of the test drug was prepared using a medium [DMEM (Nacalai Tesque, Inc.), 10% FBS (Sigma-Aldrich Co. LLC), 50 U/mL penicillin-50 μg/mL streptomycin (Thermo Fisher Scientific Inc.), 1×HEK-Blue Selection (InvivoGen), and 100 μg/mL Normocin (InvivoGen)]. 2×10^5 cells/mL HEK-Blue™ Human TLR4 Cells (InvivoGen) were inoculated to each well of a 96-well microplate for tissue culture (Iwaki), then treated with the test drug, and cultured at 37° C. for 24 hours under 5% CO2. The cells thus cultured were centrifuged at 400×g at 4° C. for 3 minutes. Recombinant SEAP Protein (InvivoGen) was used for a calibration curve. After addition of 180 μL of QUANTI-Blue (InvivoGen) to each well of 96 Well TC-Treated Microplates (Corning, Inc.), 20 μL each of the cell culture supernatant and a standard diluting solution was added to each well, and the plate was left standing at 37° C. for 4 hours. After reaction, absorbance (wavelength: 655 nm) was measured using a microplate reader (PerkinElmer, Inc., EnSpire), and a SEAP Protein concentration was calculated from the calibration curve and used as an index for TLR4 agonist activity. A drug concentration that induced reaction corresponding to 50% of the maximum reaction was calculated as EC50 (ng/mL) from a linear expression using two drug concentrations between which the drug concentration that induced reaction corresponding to 50% of the maximum reaction in each experiment was positioned, and measured values thereof.

Chain of human TLR4 (O00206 24-839): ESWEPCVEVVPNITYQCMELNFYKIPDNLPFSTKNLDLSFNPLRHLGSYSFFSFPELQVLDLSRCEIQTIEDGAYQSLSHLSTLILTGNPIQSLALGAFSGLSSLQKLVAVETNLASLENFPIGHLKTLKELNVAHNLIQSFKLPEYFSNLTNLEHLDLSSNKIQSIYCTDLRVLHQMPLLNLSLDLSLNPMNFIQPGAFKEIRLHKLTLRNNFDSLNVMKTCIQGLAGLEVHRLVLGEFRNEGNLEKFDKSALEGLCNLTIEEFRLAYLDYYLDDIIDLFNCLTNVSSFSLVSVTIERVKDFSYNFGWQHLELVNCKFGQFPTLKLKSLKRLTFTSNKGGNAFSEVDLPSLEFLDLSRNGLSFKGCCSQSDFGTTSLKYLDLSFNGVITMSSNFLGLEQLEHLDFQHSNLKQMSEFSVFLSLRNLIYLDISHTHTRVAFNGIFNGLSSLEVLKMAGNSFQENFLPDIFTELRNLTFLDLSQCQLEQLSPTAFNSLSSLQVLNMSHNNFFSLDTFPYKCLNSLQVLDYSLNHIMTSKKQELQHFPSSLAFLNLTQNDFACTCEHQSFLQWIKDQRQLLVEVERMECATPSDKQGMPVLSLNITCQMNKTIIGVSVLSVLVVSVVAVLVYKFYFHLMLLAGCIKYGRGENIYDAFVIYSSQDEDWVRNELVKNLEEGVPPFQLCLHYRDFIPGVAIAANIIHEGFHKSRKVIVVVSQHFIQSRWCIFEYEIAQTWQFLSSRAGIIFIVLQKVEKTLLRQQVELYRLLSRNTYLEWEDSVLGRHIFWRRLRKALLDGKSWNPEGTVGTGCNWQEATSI
Chain of human TLR4 (Q9Y6Y9 17-160 limits assumed): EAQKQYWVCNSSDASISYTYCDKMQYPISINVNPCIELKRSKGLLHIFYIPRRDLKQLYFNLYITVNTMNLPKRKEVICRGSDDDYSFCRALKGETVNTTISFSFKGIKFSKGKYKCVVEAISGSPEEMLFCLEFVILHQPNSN

Which EC50 does the source give for `CCCCCCCCCCC[C@H](CC(=O)N[C@@H](CO[C@@H]1O[C@H](CO)[C@@H](OP(=O)(O)O)[C@H](OC(=O)C[C@@H](CCCCCCCCCCC)OC(=O)CCCCCCCCC)[C@H]1NC(=O)C[C@@H](CCCCCCCCCCC)OC(=O)CCCCCCCCC)CC(=O)O)OC(=O)CCCCCCCCC` [Example 1(1k), Bisammonium (3R)-3-{[(3R)-3-(decanoyloxy)tetradecanoyl]amino}-4-({3-O-[(3R)-3-(decanoyloxy)tetradecanoyl]-2-{[(3R)-3-(decanoyloxy)tetradecanoyl]amino}-2-deoxy-4-O-phosphono-β-D-glucopyranosyl}oxy)butanoate] here?
Its EC50 is 0.612 nM.

For `CCCCCCCCCCC[C@H](CC(=O)NC1C(OC[C@@H](CC(=O)O)NC(=O)C[C@@H](CCCCCCCCCCC)OC(=O)CCCCCCCCC)OC(COC2(C(=O)O)CC(OC3(C(=O)O)CC(O)C(O)C([C@H](O)CO)O3)C(O)C([C@H](O)CO)O2)C(OP(=O)(O)O)C1OC(=O)C[C@@H](CCCCCCCCCCC)OC(=O)CCCCCCCCC)OC(=O)CCCCCCCCC` (stereo partly drawn) [Example 3(3d), Ammonium (3R)-3-{[(3R)-3-(decanoyloxy)tetradecanoyl]amino}-4-{[3-deoxy-α-D-manno-oct-2-ulopyranonosyl-(2-+4)-3-deoxy-α-D-manno-oct-2-ulopyranonosyl-(2-+6)-3-O-[(3R)-3-(decanoyloxy)tetradecanoyl]-2-{[(3R)-3-(decanoyloxy)tetradecanoyl]amino}-2-deoxy-4-O-phosphono-β-D-glucopyranosyl]oxy}butanoate], which EC50 is on record?
Its EC50 is 0.422 nM.

For `CCCCCCCCCCC[C@H](CC(=O)N[C@H]1[C@H](OC[C@H](NC(=O)C[C@@H](CCCCCCCCCCC)OC(=O)CCCCCCCCC)C(=O)O)O[C@H](CO[C@]2(C(=O)O)C[C@@H](O)[C@@H](O)[C@@H]([C@H](O)CO)O2)[C@@H](OP(=O)(O)O)[C@@H]1OC(=O)C[C@@H](CCCCCCCCCCC)OC(=O)CCCCCCCCC)OC(=O)CCCCCCCCC` [Example 4(4d), Ammonium (2S)-2-{[(3R)-3-(decanoyloxy)tetradecanoyl]amino}-3-({3-O-[(3R)-3-(decanoyloxy)tetradecanoyl]-2-{[(3R)-3-(decanoyloxy)tetradecanoyl]amino}-2-deoxy-6-O-(3-deoxy-α-D-manno-oct-2-ulopyranonosyl)-4-O-phosphono-β-D-glucopyranosyl}oxy)propanoate], which EC50 is on record?
The EC50 was 0.328 nM.

Which EC50 does the source give for `CCCCCCCCCCC[C@H](CC(=O)NC1C(OC[C@H](NC(=O)C[C@@H](CCCCCCCCCCC)OC(=O)CCCCCCCCC)C(=O)O)OC(COC2(C(=O)O)CC(OC3(C(=O)O)CC(O)C(O)C([C@H](O)CO)O3)C(O)C([C@H](O)CO)O2)C(OP(=O)(O)O)C1OC(=O)C[C@@H](CCCCCCCCCCC)OC(=O)CCCCCCCCC)OC(=O)CCCCCCCCC` (stereo partly drawn) [Example 5(5d), Ammonium (2S)-2-{[(3R)-3-(decanoyloxy)tetradecanoyl]amino}-3-{[3-deoxy-α-D-manno-oct-2-ulopyranonosyl-(2-+4)-3-deoxy-α-D-manno-oct-2-ulopyranonosyl-(2-+6)-3-O-[(3R)-3-(decanoyloxy)tetradecanoyl]-2-{[(3R)-3-(decanoyloxy)tetradecanoyl]amino}-2-deoxy-4-O-phosphono-β-D-glucopyranosyl]oxy}propanoate] here?
Its EC50 is 0.187 nM.

For `CCCCCCCCCCC[C@H](CC(=O)NC1C(OC[C@H](NC(=O)C[C@@H](CCCCCCCCCCC)OC(=O)CCCCCCCCC)C(=O)O)OC(COC2OC(C(=O)O)C(O)C(O)C2O)C(OP(=O)(O)O)C1OC(=O)C[C@@H](CCCCCCCCCCC)OC(=O)CCCCCCCCC)OC(=O)CCCCCCCCC` (stereo partly drawn) [Example 6(6b), Ammonium (2S)-2-{[(3R)-3-(decanoyloxy)tetradecanoyl]amino}-3-({3-O-[(3R)-3-(decanoyloxy)tetradecanoyl]-2-{[(3R)-3-(decanoyloxy)tetradecanoyl]amino}-2-deoxy-6-β-D-glucopyranuronosyl-4-O-phosphono-β-D-glucopyranosyl}oxy)propanoate], which EC50 is on record?
Its EC50 is 0.0661 nM.

— patent publication US20240002425A1, “NOVEL AMINOALKYL GLUCOSAMINIDE 4-PHOSPHATE DERIVATIVE” (DAIICHI SANKYO COMPANY, LIMITED, priority 2020, published 2024)
